Data set [1] deals with T1, Levetiracetam Binding Site (LBS), rat cerebral cortex membranes (Rattus norvegicus, UniProt Q02563).
T1 construct: The crude membrane pellet obtained is resuspended in 50 mmol/l Tris-HCl (pH 7.4); from tissue; host or cells: rat cerebral cortex crude membranes (male Sprague-Dawley)
The data set can be described thus: LBS binding assay (competitive binding, [3H]-2-[4-(3-azidophenyl)-2-oxo-1-pyrrolidinyl]butanamide). The settings on record: 4° C., 120 min.

The test system of data set [2] is audiogenic seizures in sound-susceptible mice. The data set can be described thus: Animal model of sound-susceptible mice (audiogenic seizures). It counts as in vivo. The conditions noted are these: intraperitoneally 60 minutes before induction of audiogenic seizures; doses given in mol/kg. An excerpt: The activity of the compounds of formula I, or their pharmaceutically acceptable salts, as anticonvulsants can be determined in the audiogenic seizures model. The objective of this test is to evaluate the anticonvulsant potential of a compound by means of audiogenic seizures induced in sound-susceptible mice, a genetic animal model with reflex seizures. In this model of primary generalised epilepsy, seizures are evoked without electrical or chemical stimulation and the seizure types are, at least in part, similar in their clinical phenomenology to seizures occurring in man (Löscher W. & Schmidt D., Epilepsy Res. (1998), 2, p. 145-181; Buchhalter J. R., Epilepsia (1993), 34, S31-S41). Results obtained with compounds of formula I are indicative of a strong pharmacological effect.
The objective of this test is to evaluate the anticonvulsant potency of a compound in sound-susceptible mice, a genetic animal model with reflex seizures. In this model of primary generalised epilepsy, seizures are evoked without electrical or chemical stimulation and the seizure types are, at least in part, similar in their clinical phenomenology to seizures occuring in man (Löscher W. & Schmidt D., Epilepsy Res. (1998), 2, 145-181; Buchhalter J. R., Epilepsia (1993), 34, S31-S41).
Male or female genetically sound-sensitive mice (14-28 g; N=10), derived from a DBA strain originally selected by Dr. Lehmann of the Laboratory of Acoustic Physiology (Paris) and bred in the UCB Pharma Sector husbandry unit since 1978, are used. The experimental design consisted of several groups, one group receiving the vehicle control and the other groups different doses of the test-compound. The compounds are administered intraperitoneally 60 minutes before the induction of audiogenic seizures.
For testing, the animals are placed in small cages, one mouse per cage, in a sound-attenuated chamber. After a period of orientation of 30 seconds, the acoustic stimulus (90 dB, 10-20 kHz) is delivered for 30 seconds via loudspeakers positioned above each cage. During this interval, the mice are observed and the presence of the 3 phases of the seizure activity namely wild running, clonic and tonic convulsions, is recorded. The proportion of mice protected against wild running, clonic and tonic convulsions, respectively, is calculated.
For active compounds, an ED50 value, i.e. the dose producing 50% protection relative to the control group, together with 95% confidence limits, was calculated using a Probit Analysis (SAS/STAT® Software, version 6.09, PROBIT procedure) of the proportions of protected mice for each of the 3 phases of the seizure activity.

T1 sequence (Q02563 whole entry): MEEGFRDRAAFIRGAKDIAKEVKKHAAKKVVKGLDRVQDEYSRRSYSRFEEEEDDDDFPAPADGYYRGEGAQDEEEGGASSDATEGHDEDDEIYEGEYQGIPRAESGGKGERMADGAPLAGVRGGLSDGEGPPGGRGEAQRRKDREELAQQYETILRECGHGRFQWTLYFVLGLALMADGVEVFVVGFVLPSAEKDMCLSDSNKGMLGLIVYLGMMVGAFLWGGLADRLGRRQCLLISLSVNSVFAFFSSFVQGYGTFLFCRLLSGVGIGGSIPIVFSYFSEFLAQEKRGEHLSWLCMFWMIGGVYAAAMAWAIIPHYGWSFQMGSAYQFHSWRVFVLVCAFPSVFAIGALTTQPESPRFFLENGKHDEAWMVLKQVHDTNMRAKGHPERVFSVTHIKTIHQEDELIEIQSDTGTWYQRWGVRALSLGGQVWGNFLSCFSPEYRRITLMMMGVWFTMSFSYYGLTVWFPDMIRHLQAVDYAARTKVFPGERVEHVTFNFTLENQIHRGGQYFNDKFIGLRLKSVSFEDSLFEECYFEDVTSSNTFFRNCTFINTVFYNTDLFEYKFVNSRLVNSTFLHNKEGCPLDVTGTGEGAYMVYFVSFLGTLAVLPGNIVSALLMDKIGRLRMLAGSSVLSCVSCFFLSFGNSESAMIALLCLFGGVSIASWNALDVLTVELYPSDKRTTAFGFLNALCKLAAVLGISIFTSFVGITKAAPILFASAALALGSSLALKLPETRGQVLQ

`CC[C@@H](C(N)=O)N1CC(c2ccsc2)CC1=O` (stereo partly shown) [Compound 83] returned a melting point of 93 to 95 °C. Besides, the “pKi (affinity for the levetiracetam binding site)” value (from here on “pKi”) in data set [1] is reported as “Particular affinity”.

As for `CCC(C(N)=O)N1CC(c2cc(C(F)(F)F)cc(C(F)(F)F)c2)CC1=O` (stereo not shown) [Compound 185], the melting point was determined as 148.6 °C. For the same compound, in data set [1], the “pKi” value is given as “Particular affinity”.

For the compound `CCCC1CC(=O)N(C(CC)C(N)=O)C1` (stereo not shown) [Compound 201], in data set [1], the “pKi” value is listed as “Particular affinity”. In addition, the “ED50 (dose producing 50% protection against audiogenic seizures)” value in data set [2] is reported as “Particularly promising activity”.

For `CC[C@@H](C(N)=O)N1CC(CBr)CC1=O` (stereo partly shown) [Compound 9], the “pKi” value in data set [1] is listed as “Particular affinity”. The “ED50 (dose producing 50% protection against audiogenic seizures)” value in data set [2] is “Particularly promising activity”.

For the compound “2-[4-(2,2-dibromovinyl)-2-oxo-1-pyrrolidinyl]butanamide [Compound 47]”, the “pKi” value in data set [1] was “Particular affinity”. For the same compound, the “ED50 (dose producing 50% protection against audiogenic seizures)” value in data set [2] was “Particularly promising activity”.

Compound `CC[C@@H](C(N)=O)N1CC(C)CC1=O` (stereo partly shown) [36] came in with a melting point of 56.9 °C.

As to “(2S)-2-[4-(iodomethyl)-2-oxo-pyrrolidin-1-yl]pentanamide [Compound 105]”, the “pKi” value in data set [1] is given as “Particular affinity”. Moreover, the “ED50 (dose producing 50% protection against audiogenic seizures)” value in data set [2] is given as “Particularly promising activity”.

On to `CCCC1CC(=O)N([C@@H](CC)C(N)=O)C1` (single isomer, unassigned) [Compound 159], for which, in data set [1], the “pKi” value was “Particular affinity”. Besides, the “ED50 (dose producing 50% protection against audiogenic seizures)” value in data set [2] is “Particularly promising activity”.

Regarding `CCC(C(N)=O)N1CC(c2ccco2)CC1=O` (stereo not shown) [Compound 195], the “pKi” value in data set [1] is on record as “Particular affinity”. For the same compound, in data set [2], the “ED50 (dose producing 50% protection against audiogenic seizures)” value was “Particularly promising activity”.

In the case of `CC[C@@H](C(N)=O)N1CC(CF)CC1=O` (stereo partly shown), the melting point was 87.1 °C.

`CC[C@H](C(N)=O)N1CC(c2cccs2)CC1=O` (stereo partly shown) came in with a melting point of 84 °C.

Take `CC[C@@H](C(N)=O)N1CC(n2cccc2Br)CC1=O` (stereo partly drawn) [Compound 234, (2S)-2-[4-(2-bromo-1H-pyrrol-1-yl)-2-oxo-1-pyrrolidinyl]butanamide]: in data set [1], the “pKi” value is given as “Particular affinity”. For the same compound, in data set [2], the “ED50 (dose producing 50% protection against audiogenic seizures)” value is reported as “Particularly promising activity”.

In the case of `CCC1CC(=O)N([C@@H](CC)C(N)=O)C1` (stereo partly shown) [Compound 151], the “pKi” value in data set [1] is “Particular affinity”. Moreover, in data set [2], the “ED50 (dose producing 50% protection against audiogenic seizures)” value is “Particularly promising activity”.

“(2S)-2-(2-oxo-4-(2,2-difluorovinyl)-1-pyrrolidinyl)butanamide [Compound 222]”: the “pKi” value in data set [1] is “Particular affinity”. The “ED50 (dose producing 50% protection against audiogenic seizures)” value in data set [2] was “Particularly promising activity”.

Consider `CC[C@@H](C(N)=O)N1CC(C)CC1=O` (stereo partly shown) [35], for which the melting point was found to be 73.9 °C.

`CCC1CC(=O)N([C@@H](CC)C(N)=O)C1` (stereo partly shown) [Compound 152]: in data set [1], the “pKi” value was “Particular affinity”. In addition, the “ED50 (dose producing 50% protection against audiogenic seizures)” value in data set [2] was “Particularly promising activity”.

As to `CCCC1CC(=O)N([C@@H](CC)C(N)=O)C1` (single isomer, unassigned) [Compound 158], in data set [1], the “pKi” value is reported as “Particular affinity”. The “ED50 (dose producing 50% protection against audiogenic seizures)” value in data set [2] was “Particularly promising activity”.

Turning to `CCC(C(N)=O)N1CC(C=C(F)F)CC1=O` (stereo not shown) [Compound 156], the “pKi” value in data set [1] is “Particular affinity”. In data set [2], the “ED50 (dose producing 50% protection against audiogenic seizures)” value was “Particularly promising activity”.

Regarding `CC[C@@H](C(N)=O)N1CC(CSC)CC1=O` (stereo partly shown) [Compound 100], the “pKi” value in data set [1] is “Particular affinity”. For the same compound, the “ED50 (dose producing 50% protection against audiogenic seizures)” value in data set [2] is reported as “Particularly promising activity”.

(Values after patent US7358276B2, “2-Oxo-1-pyrrolidine derivatives, processes for preparing them and their uses” (UCB, S.A., priority 2000, dated 2008).)
